IC50 data for 11 molecules are collected here from patent publication US10239863B2, “Factor XIa inhibitors” (Merck Sharp & Dohme Corp., priority 2013, dated 2019).

T1 sequence (P03951 388-625 limits assumed): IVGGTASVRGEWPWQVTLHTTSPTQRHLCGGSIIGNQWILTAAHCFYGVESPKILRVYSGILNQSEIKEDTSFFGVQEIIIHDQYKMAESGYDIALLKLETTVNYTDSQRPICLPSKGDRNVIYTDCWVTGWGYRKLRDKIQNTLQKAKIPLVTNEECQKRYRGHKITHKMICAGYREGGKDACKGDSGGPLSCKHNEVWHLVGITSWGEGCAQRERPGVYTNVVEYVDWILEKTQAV
T1 sequence (P03951 19-387 partner limits assumed): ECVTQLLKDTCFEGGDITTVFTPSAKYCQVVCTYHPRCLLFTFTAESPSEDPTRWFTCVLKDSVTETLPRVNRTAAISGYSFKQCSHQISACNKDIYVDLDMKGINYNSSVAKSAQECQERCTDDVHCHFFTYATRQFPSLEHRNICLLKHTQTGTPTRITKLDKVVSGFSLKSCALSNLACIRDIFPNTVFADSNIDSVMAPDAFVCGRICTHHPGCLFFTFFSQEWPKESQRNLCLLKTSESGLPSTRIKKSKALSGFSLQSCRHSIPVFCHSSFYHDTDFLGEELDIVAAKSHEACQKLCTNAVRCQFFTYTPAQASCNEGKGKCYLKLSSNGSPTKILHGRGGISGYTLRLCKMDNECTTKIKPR

This assay concerns the target T1, purified human Factor XIa (Homo sapiens, UniProt P03951).
T1 construct: Determinations were made using purified human Factor XIa; purchased Sekisui Diagnostics
In words: Factor XIa Assay (hydrolysis of fluorogenic substrate Z-Gly-Pro-Arg-AFC). The assay is classed as biochemical. The conditions noted are these: purified human Factor XIa 40 pM; Z-Gly-Pro-Arg-AFC 100 μM; 50 mM HEPES pH 7.4; read-out: Factor XIa Inhibition (IC50 (nM)). As for the experimental part: The effectiveness of compounds of the present invention as inhibitors of Coagulation Factor XIa can be determined using a relevant purified serine protease, and an appropriate synthetic substrate. The rate of hydrolysis of the chromogenic or fluorogenic substrate by the relevant serine protease was measured both in the absence and presence of compounds of the present invention. Assays were conducted at room temperature or at 37° C. […] A decrease in the rate of fluorescence change in the presence of inhibitor is indicative of enzyme inhibition. Such methods are known to one skilled in the art. […]
Factor XIa determinations were made in 50 mM HEPES buffer at pH 7.4 containing 150 mM NaCl, 5 mM CaCl2, and 0.1% PEG 8000 (polyethylene glycol; JT Baker or Fisher Scientific). Determinations were made using purified human Factor XIa at a final concentration of 40 pM (Sekisui Diagnostics) and the synthetic substrate, Z-Gly-Pro-Arg-AFC, TFA salt (Sigma #C0980) at a concentration of 100 μM.
Times required to achieve equilibration between enzyme and inhibitor were determined in control experiments. Initial velocities of product formation in the absence (Vo) or presence of inhibitor (Vi) were measured. Assuming competitive inhibition, and that unity is negligible compared Km/[S], [I]/e, and [I]/e (where [S], [I], and e respectively represent the total concentrations, of substrate, inhibitor and enzyme), the equilibrium constant (Ki) for dissociation of the inhibitor from the enzyme can be obtained from the dependence of Vo/Vi on [I] shown in the following equation.
Take `NC1CCN(C2CC(c3ccc(F)cc3)C(c3nc(-c4cccnc4)c[nH]3)N(C(=O)/C=C/c3cc(Cl)ccc3-n3cnnn3)C2)CC1` (centres unmarked) [Example 14, 1′-{(2E)-3-[5-chloro-2-(1H-tetrazol-1-yl)phenyl]prop-2-enoyl}-5′-(4-fluorophenyl)-6′-(4-pyridin-3-yl-1H-imidazol-2-yl)-1,3′-bipiperidin-4-amine]: the IC50 came to 139 nM. For `N#Cc1ccc(-c2cnc(C3C(c4ccc(F)cc4)CC(N4CCC(N)CC4)CN3C(=O)/C=C/c3c(C(F)(F)F)ccc(Cl)c3F)[nH]2)cc1` (centres unmarked) [Example 17, 4-{2-[4-amino-1′-{(2E)-3-[3-chloro-2-fluoro-6-(trifluoromethyl)phen-yl]prop-2-enoyl}-5′-(4-fluorophenyl)-1,3′-bipiperidin-6′-yl]-1H-imidazol-5-yl}benzonitrile], the IC50 came out at 889 nM. The figure for `N#Cc1ccc(-c2cnc(C3C(c4ccc(F)cc4)CC(N4CCC(N)CC4)CN3C(=O)/C=C/c3c(C(F)(F)F)ccc(Cl)c3F)[nH]2)cc1` (centres unmarked) [Example 16, 4-{2-[4-amino-1′-{(2E)-3-[3-chloro-2-fluoro-6-(trifluoromethyl)phen-yl]prop-2-enoyl}-5′-(4-fluorophenyl)-1,3′-bipiperidin-6′-yl]-1H-imidazol-5-yl}benzonitrile] is 35.6 nM; for `O=C(Nc1ccc2[nH]ncc2c1)[C@H]1[C@@H](c2ccc(F)cc2)C[C@@H](N2CCNCC2)CN1C(=O)/C=C/c1cc(Cl)ccc1-n1cnnn1` [Example 30, (2R,3R,5R)-1-{(2E)-3-[5-chloro-2-(1H-tetrazol-1-yl)phenyl]prop-2-enoyl}-3-(4-fluorophenyl)-N-1H-indazol-5-yl-5-piperazin-1-ylpiperidine-2-carboxamide] it is 767 nM. Turning to `COC(=O)Nc1ccc(-c2c[nH]c([C@@H]3[C@H](C4CC4)C[C@H](N4CCC(N)CC4)CN3C(=O)/C=C/c3cc(Cl)ccc3-n3cnnn3)n2)cc1` [Example 22, methyl (4-{2-[(3′S,5′S,6′S)-4-amino-1′-{(2E)-3-[5-chloro-2-(1H-tetrazol-1-yl)phenyl]prop-2-enoyl}-5′-cyclopropyl-1,3′-bipiperidin-6′-yl]-1H-imidazol-4-yl}phenyl)carbamate], the IC50 stood at 671 nM. Turning to `O=C(O)c1ccc(NC(=O)[C@@H]2[C@H](c3ccccc3)C[C@H](OC3CCNCC3)CN2C(=O)/C=C/c2cc(Cl)ccc2-n2cnnn2)cc1` (single isomer, unassigned) [Example 9], the IC50 worked out at 2.5 nM. The figure for `O=C(Nc1ccc2[nH]ncc2c1)[C@@H]1[C@H](c2ccc(F)cc2)C[C@H](N2CCNCC2)CN1C(=O)/C=C/c1cc(Cl)ccc1-n1cnnn1` [Example 31, (2S,3S,5S)-1-{(2E)-3-[5-chloro-2-(1H-tetrazol-1-yl)phenyl]prop-2-enoyl}-3-(4-fluorophenyl)-N-1H-indazol-5-yl-5-piperazin-1-ylpiperidine-2-carboxamide] is 40.9 nM; for `CC1CC(N2CCC(N)CC2)CN(C(=O)/C=C/c2cc(Cl)ccc2-n2cnnn2)C1C(=O)Nc1ccc(C(=O)O)cc1` (centres unmarked) [Example 5, 4-{[(4-amino-1′-{(2E)-3-[5-chloro-2-(1H-tetrazol-1-yl)phenyl]prop-2-enoyl}-5′-methyl-1,3′-bipiperidin-6′-yl)carbonyl]amino}benzoic acid] it is 105 nM.

As for `O=C(O)c1ccc(NC(=O)[C@@H]2[C@H](C3CCCCC3)C[C@H](OC3CCNCC3)CN2C(=O)/C=C/c2cc(Cl)ccc2-n2cnnn2)cc1` (racemic) [Example 11], the IC50 turned out to be 6.1 nM.

In the case of `COC(=O)Nc1ccc(-c2c[nH]c([C@@H]3[C@H](C4CC4)C[C@H](C4CCNCC4)CN3C(=O)/C=C/c3cc(Cl)ccc3-n3cnnn3)n2)cc1` (single isomer, unassigned) [Example 26], the IC50 was 656 nM. For the molecule `O=C(O)c1ccc(NC(=O)C2C(c3ccccc3)CC(N3CCNCC3)CN2C(=O)/C=C/c2cc(Cl)ccc2-n2cnnn2)cc1` (centres unmarked) [Example 2, 4-{[(1-{(2E)-3-[5-chloro-2-(1H-tetrazol-1-yl)phenyl]prop-2-enoyl}-3-phenyl-5-piperazin-1-ylpiperidin-2-yl)carbonyl]amino}benzoic acid], the IC50 is 11.4 nM.

The term IC50 denotes the concentration needed to halve the response being measured.
